Patent US7855297B2, “Amide derivatives and medicinal use thereof” (Mitsubishi Tanabe Pharma Corporation, priority 2000, dated 2010)

Experiments:
[1] = system: C5a stimulated neutrophil; experiment: Increase of intracellular Ca2+ concentration of C5a stimulated neutrophil; assay type: cell-based; conditions: human neutrophils
Description: A neutrophil fraction was separately taken from human peripheral venous blood using Lympholyte-poly (Cedarlane), and suspended in Hank's Balanced Salt Solution (HBSS, GIBCO BRL) supplemented with 1% fetal bovine serum (FBS). Then, Fura 2-AM (final concentration 5 μM, DOJINDO) was added to the neutrophil fraction (5×10^6 cells/mL), and the mixture was incubated at 37° C. for 40 min. The cells were washed by centrifugation and suspended to the concentration of 1×10^6 cells/mL. The intracellular Ca^2+ concentration was measured using a spectrophotofluorometer (CAF-110, JASCO Corporation), and calculated from the ratio (Ex340 value/Ex380 value) of fluorescent intensities at 500 nm upon excitation at 340 nm and 380 nm, the former being Ex340 value, the latter being Ex380 value. […] Then, Triton X-100 (final concentration 0.2%) was added and the cells were dissolved, and sb2 value, which was the […] then, and Rmax value, which was the Ex340 value/Ex380 value then, was measured. Then, EGTA (final concentration 3 mmol/L) was added and sf2 value, which was the […] then, and Rmin value, which was the Ex340/Ex380 value then, was measured. From these measurement results, the intracellular Ca^2+ concentration was calculated from the following formula. […]

[2] = system: C5a stimulated neutrophil; experiment: Production of reactive oxygen species in C5a stimulated neutrophil; assay type: cell-based; conditions: human neutrophils, C5a 3 nmol/L, luminol luminescence; read-out: IC50 value, concentration at which production of reactive oxygen species in C5a stimulated neutrophil is inhibited by 50%
Description: A neutrophil fraction was separately taken from human peripheral venous blood using Lympholyte-poly (Cedarlane), and suspended in Hank's Balanced Salt Solution (HBSS, GIBCO BRL) containing 1% fetal bovine serum (FBS) and 1 mmol/L of luminol (Wako Pure Chemical Industries, Ltd.). Reactive oxygen species was measured using a luminometer (MicroLumat, Berthold) for 96 well plate. […] Then, 25 μL of C5a (final concentration 3 nmol/L) was added and luminescence produced by the reaction of the luminol and the reactive oxygen species was measured with the lapse of time for 15 min. The rate (% inhibition) of inhibition of the production of reactive oxygen species in C5a stimulated neutrophil by the test compound was calculated by the following formula, wherein the peak value of the production of reactive oxygen species derived by C5a without addition of the test compound is Max, the peak value of the production of reactive oxygen species without addition of the test compound and without C5a stimulation is Min, and the peak value of the production of reactive oxygen species derived by C5a with the addition of the test compound is Test. % Inhibition=100−[(Test-Min)/(Max-Min)]×100 […]

CC(C)c1ccc(N(Cc2ccc(N(C)C)cc2)C(=O)C2CCCc3ccccc32)cc1 (stereo not drawn) [Example 4, N-[(4-dimethylaminophenyl)methyl]-N-(4-isopropylphenyl)-1,2,3,4-tetrahydronaphthalene-1-carboxamide]
agonistic action (increase in intracellular Ca2+ by the compound alone) ([1]; compound 3 μmol/L): did not induce an increase in intracellular Ca^2+ and the agonistic action was not found | IC50 ([1]; recombinant human C5a 100 pmol/L, read-out: IC50 value, concentration at which increase in intracellular Ca2+ concentration of C5a-stimulated neutrophil is inhibited by 50%): 5 nM | IC50 [2]: 10 nM
